From patent publication US20020111274A1, “1-alkyl-3-[1-(substituted phenyl) benzotriazol-6-yl] uracils” (BASF Aktiengesellschaft, priority 2000, published 2002)

Experiments:
Parameters in all cases: scale not given here
GLXMAW Soybean, Williams [1] = experiment: Postemergence herbicidal evaluation, GLXMAW; format: in vivo, Glycine max, (L.) Merr. cv Williams; conditions: postemergence spray, rated about two-three weeks after treatment
In short: (§1)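 Plants are raised for roughly two weeks, then treated postemergence with compound dispersed in acetone/water (80/20) plus 1.0% seed oil adjuvant, at rates of about 0.006 kg to 0.400 kg per hectare. After greenhouse care, damage is scored two to three weeks later.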

GALAP Galium [2] = experiment: Postemergence herbicidal evaluation, GALAP; format: in vivo, Galium aparine; conditions: postemergence spray, rated about two-three weeks after treatment
In short: as §1

AMBEL Ragweed, Common [3] = experiment: Preemergence herbicidal evaluation, AMBEL; format: in vivo, Ambrosia artemisifolia, L.; conditions: preemergence
In short: (§2)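 Visual ratings were taken four to five weeks after application. Before that, cups sown with seed in potting soil received a spray of compound dissolved in aqueous acetone, equivalent to about 0.013 to 0.800 kg/ha, and stood on greenhouse benches under conventional care.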

ZEAMX Corn, Field [4] = experiment: Preemergence herbicidal evaluation, ZEAMX; format: in vivo, Zea mays, L. (Sammel-Bezeichnung); conditions: preemergence
In short: as §2

GALAP Galium [5] = experiment: Preemergence herbicidal evaluation, GALAP; format: in vivo, Galium aparine; conditions: preemergence
In short: as §2

CASOB Sicklepod [6] = experiment: Preemergence herbicidal evaluation, CASOB; format: in vivo, Cassia obtusifolia, L.; conditions: preemergence
In short: as §2

[7] = system: CHEAL Lambsquarters, Common; experiment: Preemergence herbicidal evaluation, CHEAL; format: in vivo, Chenopodium album, L.; conditions: preemergence
In short: as §2

SETVI Foxtail, Green [8] = experiment: Postemergence herbicidal evaluation, SETVI; format: in vivo, Setaria viridis, (L.) Beau; conditions: postemergence spray, rated about two-three weeks after treatment
In short: as §1

AMBEL Ragweed, Common [9] = experiment: Postemergence herbicidal evaluation, AMBEL; format: in vivo, Ambrosia artemisifolia, L.; conditions: postemergence spray, rated about two-three weeks after treatment
In short: as §1

ORYSAT Rice, Tebonnet [10] = experiment: Preemergence herbicidal evaluation, ORYSAT; format: in vivo, Oryza sativa, (L.); conditions: preemergence
In short: as §2

GLXMAW Soybean, Williams [11] = experiment: Preemergence herbicidal evaluation, GLXMAW; format: in vivo, Glycine max, (L.) Merr. cv Williams; conditions: preemergence
In short: as §2

[12] = system: TRZAWR Wheat, Winter, cv Riband; experiment: Preemergence herbicidal evaluation, TRZAWR; format: in vivo, Triticum aestivum; conditions: preemergence
In short: as §2

[13] = system: TRZAWR Wheat, Winter, cv Riband; experiment: Postemergence herbicidal evaluation, TRZAWR; format: in vivo, Triticum aestivum; conditions: postemergence spray, rated about two-three weeks after treatment
In short: as §1

[14] = system: IPOHE Morningglory, Ivyleaf; experiment: Postemergence herbicidal evaluation, IPOHE; format: in vivo, Ipomoea hederacea, (L.) Jacq.; conditions: postemergence spray, rated about two-three weeks after treatment
In short: as §1

[15] = system: CHEAL Lambsquarters, Common; experiment: Postemergence herbicidal evaluation, CHEAL; format: in vivo, Chenopodium album, L.; conditions: postemergence spray, rated about two-three weeks after treatment
In short: as §1

ZEAMX Corn, Field [16] = experiment: Postemergence herbicidal evaluation, ZEAMX; format: in vivo, Zea mays, L. (Sammel-Bezeichnung); conditions: postemergence spray, rated about two-three weeks after treatment
In short: as §1

ORYSAT Rice, Tebonnet [17] = experiment: Postemergence herbicidal evaluation, ORYSAT; format: in vivo, Oryza sativa, (L.); conditions: postemergence spray, rated about two-three weeks after treatment
In short: as §1

CASOB Sicklepod [18] = experiment: Postemergence herbicidal evaluation, CASOB; format: in vivo, Cassia obtusifolia, L.; conditions: postemergence spray, rated about two-three weeks after treatment
In short: as §1

SETVI Foxtail, Green [19] = experiment: Preemergence herbicidal evaluation, SETVI; format: in vivo, Setaria viridis, (L.) Beau; conditions: preemergence
In short: as §2

[20] = system: IPOHE Morningglory, Ivyleaf; experiment: Preemergence herbicidal evaluation, IPOHE; format: in vivo, Ipomoea hederacea, (L.) Jacq.; conditions: preemergence
In short: as §2

ECHOG Barnyardgrass [21] = experiment: Postemergence herbicidal evaluation, ECHOG; format: in vivo, Echinochloa crus-galli, (L.) Beau; conditions: postemergence spray, rated about two-three weeks after treatment
In short: as §1

ABUTH Velvetleaf [22] = experiment: Postemergence herbicidal evaluation, ABUTH; format: in vivo, Abutilon theophrasti, Medic.; conditions: postemergence spray, rated about two-three weeks after treatment
In short: as §1

ABUTH Velvetleaf [23] = experiment: Preemergence herbicidal evaluation, ABUTH; format: in vivo, Abutilon theophrasti, Medic.; conditions: preemergence
In short: as §2

ECHOG Barnyardgrass [24] = experiment: Preemergence herbicidal evaluation, ECHOG; format: in vivo, Echinochloa crus-galli, (L.) Beau; conditions: preemergence
In short: as §2

## C=CCOc1ccc(C)cc1-n1nnc2cc(F)c(-n3c(=O)cc(C(F)(F)F)n(C)c3=O)cc21 [Example 42]
GLXMAW Soybean, Williams [1]; 0.008 kg/ha
  Postemergence herbicidal rating GLXMAW: 5.0
GLXMAW Soybean, Williams [1]; 0.016 kg/ha
  Postemergence herbicidal rating GLXMAW: 5.5
GLXMAW Soybean, Williams [1]; 0.032 kg/ha
  Postemergence herbicidal rating GLXMAW: 7.0
GLXMAW Soybean, Williams [1]; 0.062 kg/ha
  Postemergence herbicidal rating GLXMAW: 7.0
GALAP Galium [2]; 0.008 kg/ha
  Postemergence herbicidal rating GALAP: 1.0
GALAP Galium [2]; 0.016 kg/ha
  Postemergence herbicidal rating GALAP: 1.0
GALAP Galium [2]; 0.032 kg/ha
  Postemergence herbicidal rating GALAP: 1.0
GALAP Galium [2]; 0.062 kg/ha
  Postemergence herbicidal rating GALAP: 1.0
AMBEL Ragweed, Common [3]; rate 0.016 kg/ha
  AMBEL herbicidal rating: 0.0
AMBEL Ragweed, Common [3]; rate 0.032 kg/ha
  AMBEL herbicidal rating: 0.0
AMBEL Ragweed, Common [3]; rate 0.062 kg/ha
  AMBEL herbicidal rating: 1.0
AMBEL Ragweed, Common [3]; rate 0.125 kg/ha
  AMBEL herbicidal rating: 5.0
ZEAMX Corn, Field [4]; rate 0.016 kg/ha
  ZEAMX herbicidal rating: 0.0
ZEAMX Corn, Field [4]; rate 0.032 kg/ha
  ZEAMX herbicidal rating: 0.0
ZEAMX Corn, Field [4]; rate 0.062 kg/ha
  ZEAMX herbicidal rating: 1.0
ZEAMX Corn, Field [4]; rate 0.125 kg/ha
  ZEAMX herbicidal rating: 4.0
GALAP Galium [5]; rate 0.016 kg/ha
  GALAP herbicidal rating: 0.0
GALAP Galium [5]; rate 0.032 kg/ha
  GALAP herbicidal rating: 0.0
GALAP Galium [5]; rate 0.062 kg/ha
  GALAP herbicidal rating: 0.0
GALAP Galium [5]; rate 0.125 kg/ha
  GALAP herbicidal rating: 0.0
CASOB Sicklepod [6]; rate 0.016 kg/ha
  CASOB herbicidal rating: 0.0
CASOB Sicklepod [6]; rate 0.032 kg/ha
  CASOB herbicidal rating: 0.0
CASOB Sicklepod [6]; rate 0.062 kg/ha
  CASOB herbicidal rating: 0.0
CASOB Sicklepod [6]; rate 0.125 kg/ha
  CASOB herbicidal rating: 1.0
[7]; rate 0.016 kg/ha
  CHEAL herbicidal rating: 9.0
[7]; rate 0.032 kg/ha
  CHEAL herbicidal rating: 9.0
[7]; rate 0.062 kg/ha
  CHEAL herbicidal rating: 9.0
[7]; rate 0.125 kg/ha
  CHEAL herbicidal rating: 9.0
SETVI Foxtail, Green [8]; 0.008 kg/ha
  Postemergence herbicidal rating SETVI: 0.0
SETVI Foxtail, Green [8]; 0.016 kg/ha
  Postemergence herbicidal rating SETVI: 2.0
SETVI Foxtail, Green [8]; 0.032 kg/ha
  Postemergence herbicidal rating SETVI: 9.0
SETVI Foxtail, Green [8]; 0.062 kg/ha
  Postemergence herbicidal rating SETVI: 9.0
AMBEL Ragweed, Common [9]; 0.008 kg/ha
  Postemergence herbicidal rating AMBEL: 7.0
AMBEL Ragweed, Common [9]; 0.016 kg/ha
  Postemergence herbicidal rating AMBEL: 7.0
AMBEL Ragweed, Common [9]; 0.032 kg/ha
  Postemergence herbicidal rating AMBEL: 7.0
AMBEL Ragweed, Common [9]; 0.062 kg/ha
  Postemergence herbicidal rating AMBEL: 9.0
ORYSAT Rice, Tebonnet [10]; rate 0.016 kg/ha
  ORYSAT herbicidal rating: 0.0
ORYSAT Rice, Tebonnet [10]; rate 0.032 kg/ha
  ORYSAT herbicidal rating: 0.0
ORYSAT Rice, Tebonnet [10]; rate 0.062 kg/ha
  ORYSAT herbicidal rating: 1.0
ORYSAT Rice, Tebonnet [10]; rate 0.125 kg/ha
  ORYSAT herbicidal rating: 1.0
GLXMAW Soybean, Williams [11]; rate 0.016 kg/ha
  GLXMAW herbicidal rating: 0.0
GLXMAW Soybean, Williams [11]; rate 0.032 kg/ha
  GLXMAW herbicidal rating: 3.0
GLXMAW Soybean, Williams [11]; rate 0.062 kg/ha
  GLXMAW herbicidal rating: 3.0
GLXMAW Soybean, Williams [11]; rate 0.125 kg/ha
  GLXMAW herbicidal rating: 5.0
[12]; rate 0.016 kg/ha
  TRZAWR herbicidal rating: 0.0
[12]; rate 0.032 kg/ha
  TRZAWR herbicidal rating: 0.0
[12]; rate 0.062 kg/ha
  TRZAWR herbicidal rating: 0.0
[12]; rate 0.125 kg/ha
  TRZAWR herbicidal rating: 1.0
[13]; 0.008 kg/ha
  Postemergence herbicidal rating TRZAWR: 2.5
[13]; 0.016 kg/ha
  Postemergence herbicidal rating TRZAWR: 2.5
[13]; 0.032 kg/ha
  Postemergence herbicidal rating TRZAWR: 3.0
[13]; 0.062 kg/ha
  Postemergence herbicidal rating TRZAWR: 4.0
[14]; 0.008 kg/ha
  Postemergence herbicidal rating IPOHE: 9.0
[14]; 0.016 kg/ha
  Postemergence herbicidal rating IPOHE: 9.0
[14]; 0.032 kg/ha
  Postemergence herbicidal rating IPOHE: 9.0
[14]; 0.062 kg/ha
  Postemergence herbicidal rating IPOHE: 9.0
[15]; 0.008 kg/ha
  Postemergence herbicidal rating CHEAL: 2.0
[15]; 0.016 kg/ha
  Postemergence herbicidal rating CHEAL: 6.0
[15]; 0.032 kg/ha
  Postemergence herbicidal rating CHEAL: 7.0
[15]; 0.062 kg/ha
  Postemergence herbicidal rating CHEAL: 7.0
ZEAMX Corn, Field [16]; 0.008 kg/ha
  Postemergence herbicidal rating ZEAMX: 5.0
ZEAMX Corn, Field [16]; 0.016 kg/ha
  Postemergence herbicidal rating ZEAMX: 5.0
ZEAMX Corn, Field [16]; 0.032 kg/ha
  Postemergence herbicidal rating ZEAMX: 4.5
ZEAMX Corn, Field [16]; 0.062 kg/ha
  Postemergence herbicidal rating ZEAMX: 5.0
ORYSAT Rice, Tebonnet [17]; 0.008 kg/ha
  Postemergence herbicidal rating ORYSAT: 2.0
ORYSAT Rice, Tebonnet [17]; 0.016 kg/ha
  Postemergence herbicidal rating ORYSAT: 2.5
ORYSAT Rice, Tebonnet [17]; 0.032 kg/ha
  Postemergence herbicidal rating ORYSAT: 2.5
ORYSAT Rice, Tebonnet [17]; 0.062 kg/ha
  Postemergence herbicidal rating ORYSAT: 2.5
CASOB Sicklepod [18]; 0.008 kg/ha
  Postemergence herbicidal rating CASOB: 0.0
CASOB Sicklepod [18]; 0.016 kg/ha
  Postemergence herbicidal rating CASOB: 0.0
CASOB Sicklepod [18]; 0.032 kg/ha
  Postemergence herbicidal rating CASOB: 4.0
CASOB Sicklepod [18]; 0.062 kg/ha
  Postemergence herbicidal rating CASOB: 4.0
SETVI Foxtail, Green [19]; rate 0.016 kg/ha
  SETVI herbicidal rating: 3.0
SETVI Foxtail, Green [19]; rate 0.032 kg/ha
  SETVI herbicidal rating: 7.0
SETVI Foxtail, Green [19]; rate 0.062 kg/ha
  SETVI herbicidal rating: 9.0
SETVI Foxtail, Green [19]; rate 0.125 kg/ha
  SETVI herbicidal rating: 9.0
[20]; rate 0.016 kg/ha
  IPOHE herbicidal rating: 0.0
[20]; rate 0.032 kg/ha
  IPOHE herbicidal rating: 0.0
[20]; rate 0.062 kg/ha
  IPOHE herbicidal rating: 0.0
[20]; rate 0.125 kg/ha
  IPOHE herbicidal rating: 6.0
ECHOG Barnyardgrass [21]; 0.008 kg/ha
  Postemergence herbicidal rating ECHCG: 0.0
ECHOG Barnyardgrass [21]; 0.016 kg/ha
  Postemergence herbicidal rating ECHCG: 1.0
ECHOG Barnyardgrass [21]; 0.032 kg/ha
  Postemergence herbicidal rating ECHCG: 1.0
ECHOG Barnyardgrass [21]; 0.062 kg/ha
  Postemergence herbicidal rating ECHCG: 1.0
ABUTH Velvetleaf [22]; 0.008 kg/ha
  Postemergence herbicidal rating ABUTH: 7.0
ABUTH Velvetleaf [22]; 0.016 kg/ha
  Postemergence herbicidal rating ABUTH: 9.0
ABUTH Velvetleaf [22]; 0.032 kg/ha
  Postemergence herbicidal rating ABUTH: 9.0
ABUTH Velvetleaf [22]; 0.062 kg/ha
  Postemergence herbicidal rating ABUTH: 9.0
ABUTH Velvetleaf [23]; rate 0.016 kg/ha
  ABUTH herbicidal rating: 7.0
ABUTH Velvetleaf [23]; rate 0.032 kg/ha
  ABUTH herbicidal rating: 9.0
ABUTH Velvetleaf [23]; rate 0.062 kg/ha
  ABUTH herbicidal rating: 9.0
ABUTH Velvetleaf [23]; rate 0.125 kg/ha
  ABUTH herbicidal rating: 9.0
ECHOG Barnyardgrass [24]; rate 0.016 kg/ha
  ECHCG herbicidal rating: 1.0
ECHOG Barnyardgrass [24]; rate 0.032 kg/ha
  ECHCG herbicidal rating: 3.0
ECHOG Barnyardgrass [24]; rate 0.062 kg/ha
  ECHCG herbicidal rating: 3.0
ECHOG Barnyardgrass [24]; rate 0.125 kg/ha
  ECHCG herbicidal rating: 7.0
